Measurements taken from DBAASP.
≈ marks a conversion by molar mass, not a printed value.

Tests used:
Test in all cases: ≥ marks a high value that may be exact or a test limit, other limits are often not marked, values filed in µg/mL are converted to µM
Bacillus subtilis = system: Bacillus subtilis
[1] = system: Candida albicans ATCC 2002
[2] = system: Escherichia coli ATCC 25922
[3] = system: Staphylococcus aureus ATCC 2592
[4] = system: Enterococcus faecalis ATCC 29212
[5] = system: Pseudomonas aeruginosa ATCC 27853
[6] = system: Staphylococcus aureus ATCC 29213
[7] = system: Pseudomonas aeruginosa PAO1
[8] = system: Staphylococcus aureus USA 300
Klebsiella pneumoniae = system: Klebsiella pneumoniae
[9] = system: Salmonella enterica subsp. enterica serovar Typhimurium ATCC 14028
[10] = system: Staphylococcus aureus ATCC 25923
[11] = system: Candida albicans ATCC 90028

| MIC [2] [µM] | MIC [5] [µM] | MIC [6] [µM] | MIC [7] [µM] | MIC [8] [µM] | also measured | SMILES |
| --- | --- | --- | --- | --- | --- | --- |
| 14.9 (≈ 50 µg/mL) | – | – | – | – | MIC (Bacillus subtilis): 29.8 µM (≈ 99.9 µg/mL); MIC [1]: 3.72 µM (≈ 12.5 µg/mL); MIC [3]: 14.9 µM (≈ 50 µg/mL) | CC[C@H](C)[C@H](NC(=O)[C@H](CCCCN)NC(=O)[C@H](CC(N)=O)NC(=O)[C@H](CC(C)C)NC(=O)[C@@H](NC(=O)[C@@H](NC(=O)[C@@H](NC(=O)[C@H](C)NC(=O)[C@H](C)NC(=O)[C@H](CC(N)=O)NC(=O)[C@H](CCCCN)NC(=O)[C@H](CC(C)C)NC(=O)CNC(=O)[C@H](CCC(=O)O)NC(=O)[C@H](CCCCN)NC(=O)[C@@H](NC(=O)[C@H](CO)NC(=O)[C@H](CC(=O)O)NC(=O)[C@H](Cc1c[nH]c2ccccc12)NC(=O)[C@H](Cc1ccccc1)NC(=O)CN)C(C)C)C(C)C)[C@@H](C)O)[C@@H](C)CC)C(=O)N[C@@H](CCCCN)C(=O)N[C@H]1CSSC[C@@H](C(=O)N2CCC[C@H]2C(=O)N2CCC[C@H]2C(=O)N[C@@H](C)C(=O)O)NC(=O)[C@H](CCC(=O)O)NC(=O)[C@H](CO)NC(=O)[C@H]([C@@H](C)CC)NC(=O)[C@H](CCCCN)NC1=O [GFWDSVKEGLKNAAVTILNKIKCKISECPPA] |
| 0.746 (≈ 1.2 µg/mL) | 2.11 (≈ 3.39 µg/mL) | 1.49 (≈ 2.4 µg/mL) | – | – | MIC [4]: 2.98 µM (≈ 4.8 µg/mL) | CC[C@H](C)[C@H](NC(=O)[C@H](CCCCN)NC(=O)[C@H](CCCCN)NC(=O)[C@H](Cc1ccccc1)NC(=O)[C@H](CC(C)C)NC(=O)[C@H](CCCCN)NC(=O)[C@H](CCCCN)NC(=O)[C@@H](N)Cc1c[nH]c2ccccc12)C(=O)N[C@@H](CC(C)C)C(=O)N[C@@H](CCCCN)C(=O)N[C@@H](Cc1ccc(O)cc1)C(=O)N[C@@H](CC(C)C)C(N)=O [WKKLFKKILKYL] |
| 25 (≈ 30.6 µg/mL) | – | – | > 25 | 12.5 (≈ 15.3 µg/mL) | – | CC(C)C[C@H](NC(=O)[C@H](CC(C)C)NC(=O)[C@H](CCCCN)NC(=O)CNC(=O)[C@H](CC(C)C)NC(=O)[C@H](CC(C)C)NC(=O)[C@H](CO)NC(=O)[C@H](CC(C)C)NC(=O)[C@H](CO)NC(=O)[C@H](CC(C)C)NC(=O)[C@H](CC(C)C)NC(=O)CN)C(N)=O [GLLSLSLLGKLL] |
| 0.707 (≈ 1.61 µg/mL) | 2 (≈ 4.55 µg/mL) | – | – | – | MIC (Klebsiella pneumoniae): 1 µM (≈ 2.28 µg/mL); MIC [9]: 1 µM (≈ 2.28 µg/mL); MIC [10]: ≥ 128 µM | CC[C@H](C)[C@H](NC(=O)CN)C(=O)NCC(=O)N[C@@H](CCCCN)C(=O)N[C@@H](Cc1cnc[nH]1)C(=O)N[C@H](C(=O)NCC(=O)N[C@@H](CCCCN)C(=O)N[C@@H](C)C(=O)N[C@@H](CC(C)C)C(=O)N[C@@H](CCCCN)C(=O)NCC(=O)N[C@@H](CC(C)C)C(=O)N[C@@H](CCCCN)C(=O)NCC(=O)N[C@@H](CC(C)C)C(=O)N[C@@H](CC(C)C)C(=O)N[C@@H](CCCCN)C(=O)NCC(=O)N[C@@H](CC(C)C)C(=O)NCC(=O)N[C@@H](CCC(=O)O)C(=O)N[C@@H](CS)C(=O)O)C(C)C [GIGKHVGKALKGLKGLLKGLGEC] |
| > 25 | – | – | > 25 | 25 (≈ 30.3 µg/mL) | – | CC(C)C[C@H](NC(=O)[C@H](CC(C)C)NC(=O)[C@H](CCCCN)NC(=O)CNC(=O)[C@H](C)NC(=O)[C@H](C)NC(=O)[C@H](CCCCN)NC(=O)[C@H](C)NC(=O)[C@H](C)NC(=O)[C@H](CO)NC(=O)[C@H](CC(C)C)NC(=O)[C@H](CC(C)C)NC(=O)CN)C(N)=O [GLLSAAKAAGKLL] |
| 40 (≈ 59.5 µg/mL) | 40 (≈ 59.5 µg/mL) | 40 (≈ 59.5 µg/mL) | – | – | MIC [11]: ≥ 40 µM | CC[C@H](C)[C@H](NC(=O)[C@H](C)NC(=O)[C@@H](N)CCCCN)C(=O)N[C@H](C(=O)N[C@@H](CCC(N)=O)C(=O)N[C@@H](CCCN=C(N)N)C(=O)N[C@H](C(=O)N[C@@H](CCCCN)C(=O)N[C@@H](CC(=O)O)C(=O)N[C@@H](Cc1ccccc1)C(=O)N[C@@H](CC(C)C)C(=O)N[C@@H](CCCN=C(N)N)C(=O)O)[C@@H](C)CC)C(C)C [KAIVQRIKDFLR] |
